{"source": "patent US8362031B2", "about": "“Lonidamine analogues and treatment of polycystic kidney disease” (University of Kansas, priority 2004, dated 2013)", "key": {"[1]": {"test_system": "ADPKD cyst-lining epithelial cells", "assay": "MTT assay, proliferation of ADPKD cyst-lining epithelial cells", "type": "cell-based, human", "method": "Gamendazole (GMZ) was studied to determine the effect on cAMP and EGF treated ADPKD cyst-lining epithelial cells. The cells were treated with 100 uM cAMP or 25 ng/ml EGF to stimulate cell proliferation. Increasing concentrations of gamendazole were added to the medium of the cells. After 72 hours of treatment, MTT assays were performed.\nFor the MTT assay shown in FIG. 10A, ADPKD cyst-lining epithelial cells were plated at a density of 4×10^3 cells per well in a 96-well cell culture plate (n=6). Cells were serum-starved for 24 hours and treated either with 100 μM cAMP or 25 ng/ml EGF to stimulate cell proliferation. For the MTT assay shown in FIG. 10B, ADPKD cells were plated at a density of 2×10^3 cells per well in medium containing 1% FBS. After 24 hours, medium was changed to include 5% FBS. Increasing concentrations of GMZ were added to the medium for the cells of both FIGS. 10A and 10B to determine the effect of GMZ on cell proliferation. After 72 hours of treatment, MTT assays were performed by adding dye solution to the cells and stopping the reaction four hours later. Optical densities were measured using a spectrophotometer. In each group, results were expressed as a percentage of the control group (not treated with GMZ)."}, "[2]": {"test_system": "PCNA (proliferating cell nuclear antigen)", "assay": "Immunostaining of organ culture kidney sections", "type": "cell-based, mouse", "settings": "not shown", "text": "Since GMZ affects Hsp90 client proteins involved in cell proliferation, it was hypothesized that GMZ could also be inhibiting cell proliferation in the metanephric organ cultures. To test this idea, organ culture sections were immunostained with an antibody to PCNA (proliferating cell nuclear antigen), a marker of cell proliferation."}}}
{"smiles": "O=C(O)CCc1nn(Cc2ccc(Cl)cc2Cl)c2cc(C(F)(F)F)ccc12", "note": "[GMZ, 3-[1-(2,4-dichlorobenzyl)-6-trifluoromethyl-1H-indazol-3-yl]-propionic acid]", "values": [{"measurement": "EGF-induced proliferation of ADPKD cells (MTT)", "setting": "[1]; 25 ng/ml EGF, 1 uM to 25 uM GMZ for 72 h, dose-dependent", "result": "significantly inhibited"}, {"measurement": "cell proliferation at 10 μM", "setting": "[1]; 10 μM", "result": "no effect on cell proliferation"}, {"measurement": "cAMP-induced proliferation of ADPKD cells (MTT)", "setting": "[1]; 100 μM cAMP, 1 uM to 25 uM GMZ for 72 h, dose-dependent", "result": "significantly inhibited"}, {"measurement": "Cell proliferation of ADPKD cells with increasing concentration (MTT, FIGS. 10A and 10B)", "setting": "[1]; cAMP, EGF or 5% FBS medium, 72 hours", "result": "more effectively inhibited cell proliferation as the concentration was increased"}, {"measurement": "PCNA staining", "setting": "[2]", "result": "overall less staining, and fewer tubule cells staining for PCNA"}]}
